From ChEMBL document CHEMBL4888484, “Replenishing the malaria drug discovery pipeline: Screening and hit evaluation of the MMV Hit Generation Library 1 (HGL1) against asexual blood stage Plasmodium falciparum ,using a nano luciferase reporter read-out” (2022) come the findings set out here.

The structures appear in SMILES notation.

Series [1] deals with Plasmodium falciparum. Kind of series: Hit confirmation in dose-response curve in NF54 nanoGlo assay, at 72h. The series is classed as functional, organism-based, Erythrocyte. Also on record: timepoint 72 hour. To be noted: Plasmodium falciparum, NF54, Erythrocyte, 72 h.
The subject of series [2] is Plasmodium falciparum. As to the kind of experiment: Hit confirmation in dose-response curve in NF54 pLDH assay, at 72h. The series is classed as functional, organism-based. Also on record: timepoint 72 hour. To be noted: NF54, Erythrocyte.
In series [3] the test system is Plasmodium falciparum. As to the kind of experiment: Hit confirmation in dose-response curve in Dd2 pLDH assay, at 72h. The series is classed as functional, organism-based. Also noted: timepoint 72 hour. To be noted: Dd2, Erythrocyte.
The test system of series [4] is Plasmodium falciparum. Kind of series: Hit confirmation in dose-response curve in NF54 nanoGlo assay, at 12h. The series is classed as functional, organism-based, Erythrocyte. Also noted: timepoint 12 hour. To be noted: Plasmodium falciparum, NF54, Erythrocyte, 12 h.
Series [5] can be described thus: Hit confirmation in dose-response curve in HepG2 cytotoxicity assay, at 72h. The series is classed as toxicity, cell-based. Also noted: timepoint 72 hour. To be noted: human, HepG2 cells.
Series [6] concerns Plasmodium falciparum. Kind of series: Re-testing in dose-response curve in 3D7 pLDH assay, at 72h. To be noted: 3D7, Erythrocyte. Also noted: timepoint 72 hour. The series is classed as functional, organism-based.
Series [7] is described as follows: Re-testing in dose-response curve in HepG2 cytotoxicity assay, at 72h. The series is classed as toxicity, cell-based. Also noted: timepoint 72 hour. To be noted: human, HepG2 cells.

One may read the IC50 as the concentration that inhibits the measured activity by half. The low end stands for inhibition by little substance, the high end for a need for much substance.

On to `NC(=NCc1cccc2cccnc12)N1CCN(c2nccs2)CC1`, for which the IC50 with Plasmodium falciparum [1] was 1.7 µM; with Plasmodium falciparum [2] it was 0.447 µM; with Plasmodium falciparum [3], 0.501 µM; in the series with Plasmodium falciparum [4], over 10 µM; with Plasmodium falciparum [6], 0.709 µM. Also, the figures for the 50% inhibitory concentration (IC50) at 72 h in series [5] and in series [7] were over 10 µM and over 25 µM, respectively.

As for `CC(C)N(CC(=O)Nc1nccs1)Cc1ccccn1`, the IC50 in the series on Plasmodium falciparum [1] was 0.692 µM; in the series on Plasmodium falciparum [2], 1.7 µM; in the series with Plasmodium falciparum [3] it was 0.891 µM; with Plasmodium falciparum [4] it was over 10 µM; in the series with Plasmodium falciparum [6] it was 9.79 µM. For the same molecule, the results for the IC50 at 72 h in series [5] and in series [7] were over 10 µM and over 24.8 µM, respectively.

As to `COc1ccc(F)cc1S(=O)(=O)N1CCc2noc(N)c2C1`, the IC50 in the series with Plasmodium falciparum [1] was 0.158 µM; with Plasmodium falciparum [2], 0.912 µM; in the series on Plasmodium falciparum [3], 0.955 µM; in the series with Plasmodium falciparum [4], over 10 µM; in the series with Plasmodium falciparum [6] it was over 25 µM. Also, the IC50 at 72 h was over 10 µM in series [5] and over 25 µM in series [7].

Take `O=C(c1cscn1)N1CC[C@H](Oc2cccc(Cl)c2)C1`: the IC50 is 3.98 µM in the series on Plasmodium falciparum [1]; 6.92 µM in the series on Plasmodium falciparum [2]; 1.95 µM in the series with Plasmodium falciparum [3]; over 10 µM with Plasmodium falciparum [4]; 0.575 µM in the series on Plasmodium falciparum [6]. Moreover, the IC50 at 72 h was over 10 µM in series [5] and over 25 µM in series [7].

`CCN1CCN(c2cccc(NC(=O)c3cc(F)cc4c(=O)c5cc(F)ccc5[nH]c34)c2)CC1`: the IC50 in the series with Plasmodium falciparum [1] was determined as 0.912 µM; with Plasmodium falciparum [2], 1.38 µM; in the series with Plasmodium falciparum [3], 1.17 µM; in the series with Plasmodium falciparum [4] it was 1.32 µM; in the series with Plasmodium falciparum [6] it was 0.609 µM. Besides, the IC50 at 72 h in series [5] is over 10 µM; in series [7], 3.48 µM.

As to `Cc1nc(N)nc(C)c1C(=O)Nc1ccc(Nc2ncccn2)cc1`, the half-inhibitory concentration (IC50) was 1.48 µM with Plasmodium falciparum [1]; 1.78 µM in the series on Plasmodium falciparum [2]; 1.7 µM in the series with Plasmodium falciparum [3]; over 10 µM in the series on Plasmodium falciparum [4]; 1.46 µM with Plasmodium falciparum [6]. The IC50 at 72 h is over 10 µM in series [5] and over 25 µM in series [7].

Consider `CCN1CCN(c2cccc(NC(=O)c3ccc4[nH]c5ccccc5c(=O)c4c3)c2)CC1`, for which the concentration for half-maximal inhibition (IC50) with Plasmodium falciparum [1] was 0.955 µM; in the series on Plasmodium falciparum [2], 1.7 µM; in the series on Plasmodium falciparum [3], 1.17 µM; with Plasmodium falciparum [4], 4.79 µM; in the series on Plasmodium falciparum [6], about 0.459 µM. Also, the IC50 at 72 h is over 10 µM in series [5] and 7.42 µM in series [7].

As to `O=C(CN1CCC[C@H]1C1CCCC1)NCC1CCCCC1`, the IC50 in the series with Plasmodium falciparum [1] is 3.8 µM; in the series with Plasmodium falciparum [2], 3.02 µM; in the series with Plasmodium falciparum [3], 1.66 µM; with Plasmodium falciparum [4], over 10 µM; with Plasmodium falciparum [6] it was 2.07 µM. For the same molecule, the figures for the IC50 at 72 h in series [5] and in series [7] were over 10 µM and over 25 µM, respectively.

On to `CC(C)c1ccc2ncnc(N[C@H]3CCc4[nH]cnc4C3)c2c1`, for which the half-inhibitory concentration (IC50) was determined as 0.589 µM in the series with Plasmodium falciparum [1]; 1 µM in the series with Plasmodium falciparum [2]; 0.589 µM in the series with Plasmodium falciparum [3]; 2.4 µM in the series on Plasmodium falciparum [4]; 0.534 µM in the series on Plasmodium falciparum [6]. Moreover, the IC50 at 72 h in series [5] is over 10 µM; in series [7] it was over 25 µM.

Turning to `CN1CC[C@]2(CCN(c3ccnc4ccsc34)C2)C1`, the IC50 in the series on Plasmodium falciparum [1] worked out at 0.55 µM; in the series on Plasmodium falciparum [2], 0.38 µM; in the series on Plasmodium falciparum [3] it was 0.407 µM; with Plasmodium falciparum [4], 0.912 µM; with Plasmodium falciparum [6], 0.461 µM. For the same molecule, the values for the IC50 at 72 h in series [5] and in series [7] were over 10 µM and over 24.8 µM, respectively.

For the molecule `CN(CCNC(=O)CCc1cn(-c2ccccc2)nc1-c1ccc2c(c1)OCO2)C1CCCCC1`, the IC50 with Plasmodium falciparum [1] is 1.48 µM; with Plasmodium falciparum [2], 3.31 µM; with Plasmodium falciparum [3], 1.48 µM; with Plasmodium falciparum [4], over 10 µM; with Plasmodium falciparum [6], 0.545 µM. The IC50 at 72 h in series [5] was over 10 µM; in series [7] it was about 9.24 µM.

Consider `COc1ccc(-c2cc(C(=O)N[C@H]3CCN(c4ccc(=O)n(C)n4)C3)c(C)n2C)cc1`, for which the IC50 in the series on Plasmodium falciparum [1] is 1.05 µM; in the series with Plasmodium falciparum [2] it was 3.63 µM; with Plasmodium falciparum [3], 0.794 µM; in the series with Plasmodium falciparum [4] it was over 10 µM; with Plasmodium falciparum [6] it was 0.347 µM. Also, the half-inhibitory concentration (IC50) at 72 h was over 10 µM in series [5] and over 25 µM in series [7].

As for `O=S(=O)(NC12CCCC1CNC2)c1onc(C2CC2)c1Cl` (centres undefined), the IC50 turned out to be 0.891 µM with Plasmodium falciparum [1]; 1.48 µM in the series with Plasmodium falciparum [2]; 1.15 µM in the series with Plasmodium falciparum [3]; 1.62 µM with Plasmodium falciparum [4]; 10.5 µM with Plasmodium falciparum [6]. The concentration for half-maximal inhibition (IC50) at 72 h is over 10 µM in series [5] and over 25 µM in series [7].

Regarding `Oc1ccccc1-c1cnc(C(F)(F)F)s1`, the IC50 with Plasmodium falciparum [1] turned out to be 0.776 µM; in the series with Plasmodium falciparum [2] it was 1.05 µM; with Plasmodium falciparum [3], 1.02 µM; in the series on Plasmodium falciparum [4] it was 1.32 µM; in the series with Plasmodium falciparum [6], 5 µM. Moreover, the IC50 at 72 h was over 10 µM in series [5] and 19.4 µM in series [7].

For `Cc1ccc(NC(=O)c2c(C)nc3sc(C(=O)NCc4ccccc4)c(N)c3c2-c2ccccc2Cl)c(C)c1`, the 50% inhibitory concentration (IC50) stood at 0.831 µM in the series with Plasmodium falciparum [1]; 1.41 µM in the series on Plasmodium falciparum [2]; 1.78 µM in the series on Plasmodium falciparum [3]; 1.51 µM with Plasmodium falciparum [4]; 1.08 µM with Plasmodium falciparum [6]. The IC50 at 72 h in series [5] is over 10 µM; in series [7], over 25 µM.

Consider `COc1ccc(C(=O)N2c3ncnn3C(c3ccccc3)CC2c2ccc(C)cc2)cc1OC` (centres undefined), for which the IC50 with Plasmodium falciparum [1] is 0.457 µM; in the series with Plasmodium falciparum [2] it was 1.17 µM; in the series with Plasmodium falciparum [3] it was 0.741 µM; in the series with Plasmodium falciparum [4] it was over 10 µM; in the series with Plasmodium falciparum [6], 0.118 µM. In addition, the figures for the IC50 at 72 h in series [5] and in series [7] were over 10 µM and over 25 µM, respectively.

As to `COc1ccc(-c2cc(C(=O)N[C@H]3CCN(c4ccc(=O)[nH]n4)C3)c(C)n2C)cc1`, the IC50 in the series on Plasmodium falciparum [1] is 0.501 µM; with Plasmodium falciparum [2] it was 2.04 µM; in the series with Plasmodium falciparum [3], 0.871 µM; in the series with Plasmodium falciparum [4], over 10 µM; in the series on Plasmodium falciparum [6], 0.289 µM. In addition, the values for the IC50 at 72 h in series [5] and in series [7] were over 10 µM and over 25 µM, respectively.

As to `Cc1ccnc(Nc2ccc(N3CCNCC3)nn2)c1`, the IC50 in the series on Plasmodium falciparum [1] worked out at 1.62 µM; in the series with Plasmodium falciparum [2] it was 1.29 µM; with Plasmodium falciparum [3], 1.7 µM; in the series with Plasmodium falciparum [4] it was 2.82 µM; in the series with Plasmodium falciparum [6] it was 3 µM. The IC50 at 72 h in series [5] is over 10 µM; in series [7], over 25 µM.

As for `CC(C)c1cc(CN(Cc2cc(C(C)C)c(O)c(C(C)C)c2)C2CCCCC2)cc(C(C)C)c1O`, the IC50 worked out at 0.1 µM in the series on Plasmodium falciparum [1]; 0.151 µM in the series with Plasmodium falciparum [2]; 0.1 µM in the series on Plasmodium falciparum [3]; 0.631 µM with Plasmodium falciparum [4]; 0.113 µM with Plasmodium falciparum [6]. In addition, the IC50 at 72 h in series [5] was over 10 µM; in series [7] it was over 8.33 µM.

Consider `Cc1cnccc1NCCNCc1cccc(O)c1Cl`, for which the IC50 in the series on Plasmodium falciparum [1] was 1.12 µM; in the series with Plasmodium falciparum [2], 1.48 µM; with Plasmodium falciparum [3], 1.23 µM; in the series with Plasmodium falciparum [4], over 10 µM; with Plasmodium falciparum [6] it was 0.943 µM. Moreover, the values for the IC50 at 72 h in series [5] and in series [7] were over 10 µM and over 25 µM, respectively.

`COc1ccc2nc(O)c(C(=O)Nc3ccc4c(c3F)CCNC4)cc2c1`: the IC50 with Plasmodium falciparum [1] stood at 0.776 µM; with Plasmodium falciparum [2] it was 1.1 µM; in the series on Plasmodium falciparum [3], 1 µM; with Plasmodium falciparum [4], 1.45 µM; in the series on Plasmodium falciparum [6], 0.845 µM. The IC50 at 72 h worked out at 5.62 µM in series [5] and 2.27 µM in series [7].

On to `Cc1ccc(O)c(CNCC2(c3ccccc3Cl)CCOCC2)n1`, for which the IC50 was 0.209 µM in the series on Plasmodium falciparum [1]; 0.575 µM in the series on Plasmodium falciparum [2]; 0.437 µM in the series on Plasmodium falciparum [3]; 0.316 µM with Plasmodium falciparum [4]; 0.444 µM in the series with Plasmodium falciparum [6]. For the same molecule, the values for the IC50 at 72 h in series [5] and in series [7] were over 10 µM and over 25 µM, respectively.
